Assays:
Type in all cases: binding
[1] = target: T1, glyoxylate carboligase (GCL) (Escherichia coli, UniProt P0AEP7, I393A); test: CD titration at […] nm, Hill fit
[2] = target: glyoxylate carboligase (GCL) (Escherichia coli, UniProt P0AEP7, I393A/V51D); test: CD titration at […] nm
[3] = target: T1, glyoxylate carboligase (GCL); test: CD titration at […] nm

T1 sequence (P0AEP7 2-593 I393A limits assumed): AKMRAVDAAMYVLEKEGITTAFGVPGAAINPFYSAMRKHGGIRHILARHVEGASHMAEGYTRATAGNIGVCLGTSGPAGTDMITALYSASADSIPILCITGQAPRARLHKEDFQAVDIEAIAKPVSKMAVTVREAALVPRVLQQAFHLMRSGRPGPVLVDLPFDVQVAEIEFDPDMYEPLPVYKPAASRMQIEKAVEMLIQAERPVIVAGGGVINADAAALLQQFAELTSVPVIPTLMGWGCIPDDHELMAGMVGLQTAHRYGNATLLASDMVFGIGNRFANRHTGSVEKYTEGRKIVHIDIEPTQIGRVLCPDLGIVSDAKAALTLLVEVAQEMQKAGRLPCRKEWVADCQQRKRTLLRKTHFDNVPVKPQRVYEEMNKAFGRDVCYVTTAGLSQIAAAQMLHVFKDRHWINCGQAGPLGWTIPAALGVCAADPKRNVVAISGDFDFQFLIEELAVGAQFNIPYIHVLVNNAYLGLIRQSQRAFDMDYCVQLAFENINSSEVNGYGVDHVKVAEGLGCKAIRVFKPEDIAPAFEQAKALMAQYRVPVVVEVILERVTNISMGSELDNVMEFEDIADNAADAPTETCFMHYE
Chain of glyoxylate carboligase (GCL) (Escherichia coli, UniProt P0AEP7, I393A/V51D) (P0AEP7 2-593 V51D/I393A limits assumed): as the sequence (P0AEP7 2-593 I393A limits assumed) above, with V50D counted along it

| Structure (SMILES) | Kd [1] [µM] | Kd [2] [µM] | Kd [3] [µM] |
| --- | --- | --- | --- |
| CC(=O)C(=O)O [pyruvate] | 8.2 | – | – |
| COP(=O)(O)C(C)=O [MAP] | – | 110 ± 100 | 1400 ± 90 |

From PMC3493109 (Biochemistry, 2012)
